Measured values taken from ChEMBL document CHEMBL4396913, “Synthesis and biological evaluation of hybrid quinolone-based quaternary ammonium antibacterial agents” (Eur J Med Chem, 2019).

Assays:
[1] = test system: Pseudomonas aeruginosa; assay: Antibacterial activity against Pseudomonas aeruginosa ATCC 9027 cultured in MH medium assessed as reduction in bacterial growth incubated for 48 hrs by microbroth dilution method; assay type: functional; settings: ATCC 9027, 48 h
[2] = test system: Escherichia coli; assay: Bactericidal activity against […] Escherichia coli ATCC 8739 assessed as reduction in bacterial survival incubated for 48 hrs in presence of 50 ug/ml […], PAbetaN by microbroth dilution method; assay type: functional; settings: ATCC 8739, 48 h
[3] = test system: Streptococcus pneumoniae; assay: Antibacterial activity against Streptococcus pneumoniae cultured in MH medium assessed as reduction in bacterial growth incubated for 48 hrs by microbroth dilution method; assay type: functional
[4] = test system: Staphylococcus epidermidis; assay: Antibacterial activity against methicillin resistant Staphylococcus epidermidis ATCC 13199 cultured in MH medium assessed as reduction in bacterial growth incubated for 48 hrs by microbroth dilution method; assay type: functional; settings: ATCC 13199, 48 h
[5] = test system: HEK293; assay: Cytotoxicity against human HEK293 cells assessed as changes in cell morphology upto 20 uM incubated for 72 hrs by MTT assay; assay type: cell-based; settings: hek293, 72 h
[6] = test system: Staphylococcus aureus; assay: Antibacterial activity against Staphylococcus aureus ATCC 6538 cultured in MH medium assessed as reduction in bacterial growth incubated for 48 hrs by microbroth dilution method; assay type: functional; settings: ATCC 6538, 48 h
[7] = test system: Staphylococcus aureus; assay: Antibacterial activity against methicillin resistant Staphylococcus aureus N315 cultured in MH medium assessed as reduction in bacterial growth incubated for 48 hrs by microbroth dilution method; assay type: functional; settings: N315, 48 h
[8] = test system: Staphylococcus epidermidis; assay: Bactericidal activity against methicillin resistant Staphylococcus epidermidis ATCC 13199 cultured in MH medium assessed as reduction in bacterial survival incubated for 48 hrs by microbroth dilution method; assay type: functional; settings: ATCC 13199, 48 h
[9] = test system: Staphylococcus epidermidis; assay: Antibacterial activity against Staphylococcus epidermidis ATCC 14990 cultured in MH medium assessed as reduction in bacterial growth incubated for 48 hrs by microbroth dilution method; assay type: functional; settings: ATCC 14990, 48 h
[10] = test system: Serratia marcescens; assay: Bactericidal activity against Serratia marcescens ATCC 12795 cultured in MH medium assessed as reduction in bacterial survival incubated for 48 hrs by microbroth dilution method; assay type: functional; settings: ATCC 12795, 48 h
[11] = test system: Staphylococcus aureus; assay: Bactericidal activity against methicillin resistant Staphylococcus aureus 6347 cultured in MH medium assessed as reduction in bacterial survival incubated for 48 hrs by microbroth dilution method; assay type: functional; settings: Staphylococcus aureus, 6347, 48 h
[12] = test system: Enterococcus hirae; assay: Bactericidal activity against Enterococcus hirae ATCC 1052 cultured in BHI medium assessed as reduction in bacterial survival incubated for 48 hrs by microbroth dilution method; assay type: functional; settings: ATCC 1052, 48 h
[13] = test system: Bacillus spizizenii; assay: Bactericidal activity against Bacillus subtilis ATCC 6633 cultured in MH medium assessed as reduction in bacterial survival incubated for 48 hrs by microbroth dilution method; assay type: functional; settings: ATCC 6633, 48 h
[14] = test system: Staphylococcus aureus; assay: Bactericidal activity against methicillin resistant Staphylococcus aureus N315 cultured in MH medium assessed as reduction in bacterial survival incubated for 48 hrs by microbroth dilution method; assay type: functional; settings: N315, 48 h
[15] = test system: Pseudomonas aeruginosa; assay: Bactericidal activity against Pseudomonas aeruginosa ATCC 9027 cultured in MH medium assessed as reduction in bacterial survival incubated for 48 hrs by microbroth dilution method; assay type: functional; settings: ATCC 9027, 48 h
[16] = test system: Escherichia coli; assay: Bactericidal activity against Escherichia coli ATCC 8739 cultured in MH medium assessed as reduction in bacterial survival incubated for 48 hrs by microbroth dilution method; assay type: functional; settings: ATCC 8739, 48 h
[17] = test system: Proteus vulgaris; assay: Bactericidal activity against Proteus vulgaris NCTC 4635 cultured in MH medium assessed as reduction in bacterial survival incubated for 48 hrs by microbroth dilution method; assay type: functional; settings: NCTC 4635, 48 h
[18] = test system: Proteus vulgaris; assay: Antibacterial activity against Proteus vulgaris NCTC 4635 cultured in MH medium assessed as reduction in bacterial growth incubated for 48 hrs by microbroth dilution method; assay type: functional; settings: NCTC 4635, 48 h
[19] = Lipophilicity, log k of the compound at 100 ug/ml by micellar electrokinetic chromatography; assay type: physicochemical
[20] = test system: Staphylococcus aureus; assay: Bactericidal activity against Staphylococcus aureus ATCC 6538 cultured in MH medium assessed as reduction in bacterial survival incubated for 48 hrs by microbroth dilution method; assay type: functional; settings: ATCC 6538, 48 h
[21] = test system: HEK293; assay: Cytotoxicity against human HEK293 cells assessed as cell viability upto 20 uM incubated for 72 hrs by MTT assay; assay type: cell-based; settings: hek293, 72 h
[22] = test system: Staphylococcus epidermidis; assay: Bactericidal activity against Staphylococcus epidermidis ATCC 14990 cultured in MH medium assessed as reduction in bacterial survival incubated for 48 hrs by microbroth dilution method; assay type: functional; settings: ATCC 14990, 48 h
[23] = test system: Enterococcus hirae; assay: Antibacterial activity against Enterococcus hirae ATCC 1052 cultured in BHI medium assessed as reduction in bacterial growth incubated for 48 hrs by microbroth dilution method; assay type: functional; settings: ATCC 1052, 48 h
[24] = test system: Escherichia coli; assay: Antibacterial activity against […] Escherichia coli ATCC 8739 assessed as reduction in bacterial growth incubated for 48 hrs in presence of 50 ug/ml […], PAbetaN by microbroth dilution method; assay type: functional; settings: ATCC 8739, 48 h
[25] = test system: Staphylococcus aureus; assay: Antibacterial activity against methicillin resistant Staphylococcus aureus 6347 cultured in MH medium assessed as reduction in bacterial growth incubated for 48 hrs by microbroth dilution method; assay type: functional; settings: Staphylococcus aureus, 6347, 48 h
[26] = test system: Serratia marcescens; assay: Antibacterial activity against Serratia marcescens ATCC 12795 cultured in MH medium assessed as reduction in bacterial growth incubated for 48 hrs by microbroth dilution method; assay type: functional; settings: ATCC 12795, 48 h
[27] = test system: Escherichia coli; assay: Antibacterial activity against Escherichia coli ATCC 8739 cultured in MH medium assessed as reduction in bacterial growth incubated for 48 hrs by microbroth dilution method; assay type: functional; settings: ATCC 8739, 48 h
[28] = test system: Bacillus spizizenii; assay: Antibacterial activity against Bacillus subtilis ATCC 6633 cultured in MH medium assessed as reduction in bacterial growth incubated for 48 hrs by microbroth dilution method; assay type: functional; settings: ATCC 6633, 48 h
[29] = test system: Streptococcus pneumoniae; assay: Bactericidal activity against Streptococcus pneumoniae cultured in MH medium assessed as reduction in bacterial survival incubated for 48 hrs by microbroth dilution method; assay type: functional

SMILES	MIC [1] [µg/mL]	MBC [2] [µg/mL]	MIC [3] [µg/mL]	MIC [4] [µg/mL]	Activity [5]	MIC [6] [µg/mL]	MIC [7] [µg/mL]	MBC [8] [µg/mL]	MIC [9] [µg/mL]	MBC [10] [µg/mL]	MBC [11] [µg/mL]	MBC [13] [µg/mL]	MBC [14] [µg/mL]	MBC [15] [µg/mL]	MBC [16] [µg/mL]	MBC [17] [µg/mL]	MIC [18] [µg/mL]	log K [19]	MBC [20] [µg/mL]	Activity [21]	also measured
CCn1cc(C(=O)O)c(=O)c2cc(F)c(N3CC[N+]4(CC3)CN3C(C)=CC(C)=C(C(=O)O)C3=N4)nc21.[Cl-]	512	16	> 512	64	Non-Toxic	128	128	128	128	128	128	16	128	512	16	2	1	-0.3984	128	Non-Toxic	MBC [12]: 32 µg/mL; MBC [22]: 128 µg/mL; MIC [23]: 16 µg/mL; MIC [24]: 4 µg/mL; MIC [25]: 128 µg/mL; MIC [26]: 64 µg/mL; MIC [27]: 8 µg/mL; MIC [28]: 16 µg/mL
COc1c(N2CC[N+]3(CN4C(=N3)C(C(=O)O)=Cc3ccccc34)C(C)C2)c(F)cc2c(=O)c(C(=O)O)cn(C3CC3)c12.[Cl-] (stereo not drawn)	128	0.5	128	4	Non-Toxic	16	32	8	32	64	16	32	32	128	0.5	4	4	-0.1255	16	Non-Toxic	MBC [29]: 256 µg/mL; MBC [22]: 32 µg/mL; MIC [23]: > 512 µg/mL; MIC [24]: 0.125 µg/mL; MIC [25]: 16 µg/mL; MIC [26]: 64 µg/mL; MIC [27]: 0.25 µg/mL; MIC [28]: 32 µg/mL
CC1=CC(C)=C(C(=O)O)C2=N[N+]3(CCN(c4cc5c(cc4F)c(=O)c(C(=O)O)cn5C4CC4)CC3)CN12.[Cl-]	128	2	> 512	4	Non-Toxic	128	32	8	64	64	128	8	32	128	8	2	2	-0.3214	128	Non-Toxic	MBC [22]: 64 µg/mL; MIC [23]: > 512 µg/mL; MIC [24]: 0.5 µg/mL; MIC [25]: 128 µg/mL; MIC [26]: 64 µg/mL; MIC [27]: 8 µg/mL; MIC [28]: 8 µg/mL
